Measured values: publication PMC6522524 (Nature Communications, 2019)
Read-outs that look alike come from different tables or passages of the source.

Experiments:
[1] = tested on: HBV (ayw subtype, genotype D) replicon in HepG2.2.15 cells; experiment: microbe, parasite or virus in culture; assay type: cell-based, Hepatitis B virus; conditions: Hepatitis B virus
[2] = tested on: HBV (pHBV1.2× adr) in transfected HepG2 cells; experiment: microbe, parasite or virus in culture; assay type: cell-based, Hepatitis B virus; conditions: Hepatitis B virus, HepG2, 144 h; HBV1.2× adr transfected cells, 6 days; read-out: IC50, intracellular HBV DNA
[3] = HepG2.2.15, 144 h, read-out: Relative secreted HBV DNA level (Folds), AVERAGE
[4] = HepG2.2.15, 144 h, read-out: Relative secreted HBV DNA level (Folds), individual samples

Cc1cc(C2CCCCC2)n(O)c(=O)c1 [Ciclopirox, 6-cyclohexyl-1-hydroxy-4-methyl-2(1 H)-pyridone]
inhibition at 1 µM ([1]; HepG2.2.15, 72 h, read-out: % of inhibition (ETV =100%), initial screening (3days)): 142% | inhibition at 1 µM ([1]; HepG2.2.15, 144 h, read-out: % of inhibition (ETV =100%), confirmation (6days)): 88.6% | IC50 ([1]; HepG2.2.15, 144 h, read-out: IC50, HBV DNA secretion): 880 ± 70 nM | activity at 0.1 µM [1, 3]: 102% | activity at 0.2 µM [1, 3]: 81.1% | activity at 0.5 µM [1, 3]: 52.1% | activity at 1 µM [1, 3]: 51.6% | activity at 2 µM [1, 3]: 29.1% | activity at 5 µM [1, 3]: 23.5% | activity at 10 µM [1, 3]: 4.49% | activity at 0.1 µM [1, 4]: 102% | activity at 0.2 µM [1, 4]: 83% | activity at 0.5 µM [1, 4]: 48.1% | activity at 1 µM [1, 4]: 49.9% | activity at 2 µM [1, 4]: 29% | IC50 [2]: 800 ± 180 nM
